“Also recorded” adds a separate entry of the source. Where two headings read alike, the source gives them in different places.
Columns and labels:
[1] = target: T1, human M1 muscarinic receptors (Homo sapiens, UniProt P11229); test: Full ACh dose-response curves of [3H]AA release fitted to an allosteric operational model
T1 sequence (P11229 1-460): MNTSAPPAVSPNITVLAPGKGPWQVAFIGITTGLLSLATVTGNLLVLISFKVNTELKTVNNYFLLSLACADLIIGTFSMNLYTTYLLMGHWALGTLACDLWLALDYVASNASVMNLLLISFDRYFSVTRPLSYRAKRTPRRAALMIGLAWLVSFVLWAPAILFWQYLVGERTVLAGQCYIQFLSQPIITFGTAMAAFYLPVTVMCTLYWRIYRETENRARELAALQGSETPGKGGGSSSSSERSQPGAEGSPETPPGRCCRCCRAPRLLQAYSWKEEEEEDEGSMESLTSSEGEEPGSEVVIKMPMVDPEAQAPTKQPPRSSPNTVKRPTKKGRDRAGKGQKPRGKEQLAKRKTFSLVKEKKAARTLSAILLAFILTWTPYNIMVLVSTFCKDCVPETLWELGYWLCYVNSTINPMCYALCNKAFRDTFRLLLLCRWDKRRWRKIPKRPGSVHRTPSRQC
Experimental: Tabulated [^3H]AA release data are represented as a fraction of maximal release elicited by ACh or as the fraction of release elicited by the relevant concentration of ACh alone, as indicated. Dose-response curves were normalized to the maximal response of ACh without allosteric ligand. Where indicated, response curves were analyzed using the empirical four-parameter equation: Y=Top+Bottom−Top/1+X/C50^n where X is the concentration of the ligand used, Y is the amount of response, C50 is the concentration of the ligand that produces 50% of the maximal effect, Top and Bottom are the top and bottom plateaus of the curve, and n is related to the Hill slope for the curve. Where indicated, families of response curves were analyzed according to an allosteric operational model:[50],[51]
where EM is the maximal response; A is the concentration of ACh; B is the concentration of the allosteric ligand; τA and τB represent the operational efficacies of A and B, respectively; KA and KB are the equilibrium dissociation constants of A and B; and α and β represent the cooperativities between A and B in terms of binding and activation, respectively. Curve-fitting was carried out with GraphPad Prism, version 5.0 or 6.0 (San Diego CA).

[2] = target: T1, human M1 muscarinic receptors; test: [3H]-arachidonic acid release in CHO cells expressing M1 receptors, with and without ACh; format: cell-based; set-up: expressed in transfected cells; host or cells: CHO cells (stably transfected CHO-hM1, from Mark Brann's laboratory, NIH); settings: for modulation of ACh response (in words): modulators at 10 µM (amiodarone 30 µM); for intrinsic agonist activity (in words): [3H]AA release in the absence of ACh, 10 µM
Experimental: CHO cells expressing human M1 muscarinic receptors were cultured at 37°C in a 5% CO2 atmosphere in F12 medium supplemented with 5% fetal bovine serum, 100 units/mL penicillin, and 100µg/mL streptomycin. These cells were obtained from Mark Brann’s laboratory when they were at NIH and have been in use by us and others for many years.[49]
Measurement of [^3H]AA release was performed as described in Stahl and Ellis.[24] Stably transfected CHO-hM1 cells were seeded on 24-well plates (Greiner Bio-One GmbH, Frickenhausen, Germany) at a density of 5.0 × 10^4 cells/well in 0.5 ml of F-12 medium. Cells were incubated until they attached (approximately 3 h), followed by the addition of [^3H]AA to a final concentration of 0.05 µCi of [^3H]AA per well. The cells were then grown for 16 to 20 h before the assay was performed. [^3H]AA release was measured in Eagle’s basal medium with 20 mM HEPES and 2 mg/ml fatty acid-free bovine serum albumin (EM-BSA). Cells were rinsed twice with EM-BSA, followed by the addition of EM-BSA media containing experimental agents and incubated for 1 h at 37°C. The assay was terminated by aspiration of the media, and the amount of [^3H]AA released was determined by liquid scintillation counting (Beckman-Coulter LS6500). […]
Tabulated [^3H]AA release data are represented as a fraction of maximal release elicited by ACh or as the fraction of release elicited by the relevant concentration of ACh alone, as indicated. Dose-response curves were normalized to the maximal response of ACh without allosteric ligand. Where indicated, response curves were analyzed using the empirical four-parameter equation: […] where X is the concentration of the ligand used, Y is the amount of response, C50 is the concentration of the ligand that produces 50% of the maximal effect, Top and Bottom are the top and bottom plateaus of the curve, and n is related to the Hill slope for the curve. Where indicated, families of response curves were analyzed according to an allosteric operational model:[50],[51]

[3] = tested on: wild-type (AB) zebrafish (Danio rerio); test: animal or person; format: in vivo; settings: for effect on locomotor activity and turning behaviors (in words) / concentration with significant effects on zebrafish behavior: AB zebrafish; for effect on locomotor activity and turning behaviors (in words): 30-minute spontaneous swimming period; for concentration with significant effects on zebrafish behavior: compared with BQCA; for EC50: Danio rerio, AB zebrafish larvae; for Therap. Index: zebrafish, apparently MTC / MEC
Experimental: The movement of larval zebrafish was monitored with the Noldus behavior recording system (Noldus Information Technology, Leesburg VA) and quantified using EthoVision® XT 15 software (Noldus Information Technology, Leesburg VA). Five-dpf zebrafish larvae were exposed to a range of nonlethal concentrations of compounds in a 24-well plate with appropriate controls. The plate was immediately placed in the incubator for a 30-minute exposure period. After 30 minutes, the plate was transferred to the Noldus system and swimming behavior was recorded in 100% light for 30 minutes to measure spontaneous swimming behavior. The light was switched off for 10 minutes (dark period) and then switched on for 10 minutes (light period), which was then repeated for two additional cycles. In total, the larvae were exposed to three cycles of alternating 10-minute dark and light periods (100% darkness-to-100% light). Each drug challenge was conducted on three separate plates with n = 6 larvae/dose/plate.
Absolute turn angle (TA) and angular velocity provided measures of the extent of turning behavior, while the intra-individual variance of turn angle quantified how consistently (low variance) or inconsistently (high variance) fish turned. A lowered intra-individual variance of turning reflected repeatedly performing the same turning behavior, a stereotypy.[53]
All data for exposure and the behavioral end points were analyzed by one-way ANOVA (factor: drug concentration) followed by a Dunnett’s multiple comparisons test for post hoc significance between drug concentration and control group. Statistically significant differences are noted as follows; *, p < 0.05; **, p < 0.01; ***, p < 0.001.

[4] = tested on: wild-type (AB) zebrafish (Danio rerio); test: Maximum tolerated concentration (MTC) determination in zebrafish larvae; format: in vivo; settings: for MTC (maximum tolerated concentration): 5 dpf zebrafish larvae, after 24-hr exposure; for signs of toxicity (in words): zebrafish, concentrations up to 30 μM, the highest concentration tested
Experimental: Determination of maximum tolerated concentration (adapted from Berghmans)[52] was completed by placing 5 days post fertilization (dpf) wild-type zebrafish larvae in a 24 well plate at 6 fish per well, and one compound concentration per well. […] Death was determined by the absence of heartbeat. Additional endpoints were used to assess toxicity at non-lethal concentrations such as startle capacity (poke stimulus), abnormalities in swimming behavior (loss of dorsoventral balance), and gross morphological deformities (bent body). […] The MTC determination was used to select three doses of each compound (low, medium, high dose) to be used in behavioral assays.

[5] = tested on: wild-type (AB) zebrafish (Danio rerio); format: in vivo; settings: zebrafish larvae; 30-minute spontaneous swimming period; mean ± s.e.m., N = 12; test concentration not given
[6] = best-fit parameter, allosteric operational model, Em set to 2.0, ACh as agonist
[7] = read-out: EC50 for decreasing locomotor activity
[8] = read-out: EC50 for decreasing repetitive behaviors (increasing angular velocity)

| Compound | Kb [1] | Kd [1] | Binding cooperativity, A-B, α [1, 6] | Operational Efficacy-B, τB [1, 6] | modulation of ACh response (in words) ([2]; [3H]AA release, CHO-hM1) | effect on locomotor activity and turning behaviors (in words) [3] | concentration with significant effects on zebrafish behavior [3] | EC50 [3, 7] | EC50 [3, 8] | Therap. Index [3] | MTC (maximum tolerated concentration) [4] | signs of toxicity (in words) [4] | Angular Velocity, percentage change relative to controls [5] | Distance Moved, percentage change relative to controls [5] | Variance Turn Angle, percentage change relative to controls [5] | intrinsic agonist activity (in words) [2] | increase in mAChR activity compared to treatment with ACh alone ([2]; [3H]AA release, CHO-hM1, predominantly at higher doses of ACh (Table 2, not available)) | Activation cooperativity, A-B, β [1, 6] | MEC ([3]; zebrafish larvae, locomotor behaviors, abbreviation not defined in the paper) |
| --- | --- | --- | --- | --- | --- | --- | --- | --- | --- | --- | --- | --- | --- | --- | --- | --- | --- | --- | --- |
| COc1c(I)cc(CN2C(=O)C(=O)c3ccccc32)cc1I [Compound 8a, 1-(3,5-diiodo-4-methoxybenzyl)indoline-2,3-dione] | 550 nM | 550 nM | 0.69 ± 0.24 | 0.17 ± 0.03 | significant enhancement of ACh activity; also recorded: dramatically enhanced ACh efficacy | reduced locomotor activity | 1 µM | 5600 nM | 2600 nM | > 100 | > 30 µM | neither produced any signs of toxicity |  |  |  |  |  |  |  |
| COc1c(Br)cc(CN2C(=O)C(=O)c3ccccc32)cc1Br [Compound 8c, 1-(3,5-dibromo-4-methoxybenzyl)indoline-2,3-dione] | 3000 nM | 2950 nM | 0.98 ± 0.39 | 0.33 ± 0.06 | dramatically enhanced ACh efficacy |  | 1 µM | 1000 nM | 1100 nM |  | > 30 µM | neither produced any signs of toxicity |  |  |  |  |  |  |  |
| CCCCc1oc2ccccc2c1C(=O)c1cc(I)c(OCCN(CC)C(=O)c2ccccc2)c(I)c1 [Compound 5b, N-(2-(4-(2-butylbenzofuran-3-carbonyl)-2,6-diiodophenoxy)ethyl)-N-ethylbenzamide] |  |  |  |  |  |  |  |  |  |  | 10 µM |  | 80.4 ± 11.5% | 87.7 ± 13.5% | 77.8 ± 9.3% | lacked intrinsic activity | 80% |  |  |
| CCN(CC)CCOc1ccc(CN2C(=O)C(=O)c3ccccc32)cc1 [Compound 7, 1-(4-(2-(diethylamino)ethoxy)benzyl)indoline-2,3-dione] |  | 631 nM | 0.18 ± 0.095 | 0.032 ± 0.02 | primarily decreased potency and slightly enhanced the efficacy of ACh activity; also recorded: decreased ACh potency with little impact on ACh efficacy | not effective in reducing locomotor activity or elevating angular velocity or variance of turn angle |  |  |  |  | 10 µM |  |  |  |  | lacked intrinsic activity |  | 0.99 ± 0.12 |  |
| VU0238408 [reference compound] |  |  |  |  |  |  |  |  |  | 30 | 30 µM |  | 180.1 ± 20.3 % | 34.6 ± 4.0 % | 146.6 ± 12.4 % |  |  |  | 1 µM |

— PMC10896388, “Hybrid Allosteric Modulators of M1 Muscarinic Receptors Enhance Acetylcholine Efficacy and Decrease Locomotor Activity and Turning Behaviors in Zebrafish” (Research Square, 2024)
